Patent EP1785723A1, “Micro calorimetric analysis of mammalian cell susceptibility to agents that affect cell growth, metabolism and immune response, and use of micro calorimetric analysis in a transplantation test” (Stratos Bio Ltd., priority 2005, dated 2007)

What was measured:
[1] = test system: Bacillus Pumilus; assay: Flow microcalorimetry, p-t curves of growing culture with antibiotics and mixtures; format: cell-based
Excerpt: To the vertical face of the vessel close to its base, equidistantly spaced around the circumference, ports were fitted for an oxygen electrode and for sampling/inoculation. The fermenter was closed with a flat flanged glass lid which had five ports accommodating respectively, gas inlet tube, gas exhaust (via air condenser), inlet and outlet flow-lines to and from the calorimeter. The fermenter and lid was sealed with a p.t.f.e. gasket and clamped with a metal clip. The fermenter was placed on a magnetic stirring unit in a water jacket which allowed circulation of the thermostatically controlled water at 30°C or 37°C. The fermenter which contained a Teflon coated magnetic stirring bar, was sterilised by autoclaving.
For a typical calorimetric incubation the medium was passed through the calorimetric vessel at the same flow rate and temperature as those used in the experiment to establish a steady baseline deflection. The following operations then took place to a strict timetable. The liquid nitrogen stored ampoule was thawed at 38°C for 3 min and then stirred for 20 sec on a whirlimixer. The bacterial suspension (0.5-1.5ml) volumes was inoculated into the medium (100ml) two minutes after completion of thawing. A Gilson automatic pipette was used for inoculation. The calorimeter inlet flow-line was placed in the incubation medium 30 seconds after inoculation. […]

[2] = test system: respiring E.coli; assay: Flow microcalorimetry, p-t curves of respiring cells in glucose buffer; format: cell-based; details: for Effect on p-t curve / power output: Polymyxin B alone, concentration not stated, Fig. 15; for Effect on power: neomycin alone added to respiring E.coli, Fig. 16
Description: For a typical calorimetric incubation the medium was passed through the calorimetric vessel at the same flow rate and temperature as those used in the experiment to establish a steady baseline deflection. The following operations then took place to a strict timetable. The liquid nitrogen stored ampoule was thawed at 38°C for 3 min and then stirred for 20 sec on a whirlimixer. The bacterial suspension (0.5-1.5ml) volumes was inoculated into the medium (100ml) two minutes after completion of thawing. A Gilson automatic pipette was used for inoculation. The calorimeter inlet flow-line was placed in the incubation medium 30 seconds after inoculation. The flowing incubation medium reached the calorimetric vessel two min after inlet flow-line insertion. At this time the recording of the p-t curves was started. Eight min after inoculation the outflow from the calorimeter was returned to the fermenter (after the "baseline" medium had run to waste but before the inoculated medium ran to waste) thus making a closed system. Aeration was started as soon as the inlet tube was inserted in the fermenter. Microbiological purity of the culture was checked by plating out a sample of the culture at the end of each incubation on nutrient agar (lab M).
The output of calorimetric experiments is a plot of power (energy evolution per unit of time) as a function of time. The unit of power (p) is the Watt (W) and the unit of time is the hour (h). In some experiments seconds (s) were used as time unit.
E.coli was suspended in 10% DMSO prior to freezing and the viable counts were for batch 1: pre-freeze: 4.0 ± 0.6_ x 10^10 cfu/ml and post -freeze 2.0 ± 0.44 x 10^10 cfu/ml and for batch 2: pre-freeze: 3.45 ± 0.58 x 10^10 cfu/ml and post-freeze 2.93 ± 0.43 x 10^10 cfu/ml. The freezing rate for both batches was 20°C/min the survival rate was 50% for batch 1 and 85% for batch 2. These differences may have been due to batch 1 being kept for 24h at 4°C before being frozen.
The respiration experiments were carried out in glucose buffer at different pH. The respiration curves obtained from batch 1 (inoculum 2 x 10^10 cfu/ml) and batch 2 Inoculum 3.2 x 10^10 cfu/ml) were essentially similar and a mean was used as a reference). The respiration experiments were carried out at pH 7 for polymyxin and Znbacitracin and at pH 8 for neomycin. No differences in p-t control curves could be observed at pH 7 or pH 8.
The p-t curves rose and reached a plateau as has been observed for respiration of yeasts and some 20 min later fell to a lower plateau value. Prior incubation of the cells in the buffered glucose for periods up to 20 min before presentation to the calorimeter could reduce or entirely remove this effect.

[3] = POLB 6.3 ug/ml, respiration, pH 7

## Polymyxin B [POLB]
[1]; 20ug/ml POLB, bacterial concentration printed '0?' as % of p-t curve, pH 8.00
  Time within which growth was inhibited completely: Within 9 hours growth was inhibited completely
[2]; [3]
  Observed effect on p-t curves: Reduced height of p-t curve initially
  Time of return of p-t curve to baseline: ≤ 1 h
[2]; listed as Polymyxin B
  Effect on p-t curve / power output: reduced the initial peak height and thereafter the p-t curve returned to baseline
[2]; listed as polymyxin B
  Effect on p-t curve / power output: severe reduction in power output followed by a return to baseline

## NC[C@@H]1O[C@H](O[C@H]2[C@@H](O)[C@H](O[C@@H]3[C@@H](O)[C@H](N)C[C@H](N)[C@H]3O[C@H]3O[C@H](CN)[C@@H](O)[C@H](O)[C@H]3N)O[C@@H]2CO)[C@H](N)[C@@H](O)[C@@H]1O [NEO, neomycin]
[1]; concentration not given
  Effect on power output in growth studies: increase in power output
[2]; NEO, respiration, pH 8
  Linear dose-response range: 10 to 100 µg/mL
[2]; all concentrations of Neomycin, respiring E.coli
  Effect on heat output: caused an increased heat output
[2]; listed as Neomycin
  Effect on power: caused an increase in power output
[2]; listed as neomycin
  Effect on power: caused an increase in power
[2]; neomycin, respiring E.coli
  Range of linear relationship between dose and the reciprocal of increase in response from the control curve: 20 to 100 µg/mL
